Test results: EP2246037A2, “Anti-aging and whitening properties of quercetin, 18a-glycyrrhetinic acid, hederagenin and its derivatives” (Korres S.A. Natural Products, priority 2009, dated 2010)
“Also recorded” adds a separate entry of the source.

What was measured:
[1] = system: proteasome subunits (β5, α7); assay: Immunoblot of proteasome subunit levels in treated cells; type: cell-based, human; conditions: 24 h treatment
[2] = system: HFL-1 human diploid fibroblasts; assay: β-galactosidase activity staining of continuously treated fibroblasts; type: cell-based
Description: The steps, methods and results that were obtained regarding the anti-aging properties of the examined substances are the following: • 1) Study of the lifespan of human diploid fibroblasts in vitro in the presence of the substances. • 1.1. HFL-1 human diploid fibroblasts (HDFs) were used in in vitro conditions (growth at 37°C, 5% CO2 and 95% humidity). • 1.2. The cells were maintained in Dulbecco's modified Eagle's medium (DMEM ®; Invitrogen Life Technologies Inc.) supplemented with 10% (v/v) fetal calf serum, 100 Units/ml penicillin, 100 µg/ml strepromycin, 2 mM glutamine and 1% (v/v) non-essential amino acids (complete medium). • 1.3. The cells were constantly cultured in culture medium supplemented with the substances [final concentration for quercetin (QUER), 18α-glycyrrhetinic acid (18α GA), and hederagenin (HED): 2 µg/ml and for quercetin caprylate (QU-CAP) three concentrations were applied: 0.5, 2 and 5 µg/ml]. Quercetin, 18α-glycyrrhetinic acid and hederagenin were diluted in DMSO (dimethyl sulfoxide) whereas quercetin caprylate was diluted in caprilic/capric triglycerides (CAP). Therefore, the control cultures were incubated in medium supplemented with 0.1% DMSO or 0.1% CAP. • 1.4. The cells were replenished with fresh media supplemented with the substances or the diluents every 24 h and their numbers were examined using a Coulter Z2 ® counter (Coulter Corporation) until they reached senescence (approximately after 13 weeks). The cumulative population doublings performed by each culture were calculated using the following formula: CPD=Σ[PD] where PD=LOG[Nfinal/Ninitial]/LOG[2], where N final represents the number of cells that were measured when each culture reached confluence and N initial represents the number of cells that was initially seeded. • 1.5. Photographs of the cells maintained in cell culture and treated with the various substances for the same time period were taken. • 1.6. […] More specifically, cells that were incubated with quercetin caprylate gave up to 2.8% more population doublings as compared to the population doublings performed by the relative control cultures. Cells that were incubated with the other substances gave up to 2.9% more population doublings as compared to their relative control cultures. • 1.7. […] Cells that were treated with either of the tested substances maintained the young morphology for longer as compared to the control cultures (DMSO-treated and CAP-treated). […] Briefly, 10^5 cells from each culture were seeded in 6-well plates. After 24 h cells were washed with PBS (phosphate buffered saline), fixed in 0.2% glutaraldehyde and 2% formaldehyde for 5 min, washed again with PBS, and finally stained for 24 h at 37 °C in the absence of CO2, in staining solution (150 mM NaCl, 2 mM MgCl2, 5 mM K3Fe(CN)6, 40 mM citric acid, and 12 mM sodium phosphate, pH 6.0) containing 1 mg/ml 5-bromo-4-chloro-3-indolyl-β-D-galactoside. Photographs were then taken. • 1.3. […] HFL-1 HDFs that have senesced in vitro were used (growth at 37°C, 5% CO2 and 95% humidity). More specifically, middle aged HFL-1 HDFs (cpd 59) and terminally senescent HFL-1 HDFs (cpd 65) that had senesced in the absence of any substance were used. • 3.2. The cells were seeded and maintained in complete medium (see 1.2). Culture medium supplemented with the substances [final concentration for quercetin (QUER), 18α-glycyrrhetinic acid (18α GA), and hederagenin (HED): 2 µg/ml and for quercetin caprylate (QU-CAP) three concentrations were applied: 0.5, 2 and 5 µg/ml] or the diluents (0.1% DMSO or 0.1% CAP) were added 24 h later. The cells were replenished with fresh media supplemented with the substances or the diluents every 24 h for 1 week and their numbers were then examined using a Coulter Z2 ® counter (Coulter Corporation). • 3.3. Detection of β-galactosidase activity was performed in these cells as described above and photographs of the cells following β-galactosidase activity assay were taken. • 3.4. […]

HFL-1 HDFs = assay: Levels of oxidized (carbonylated) proteins, OxyBlot analysis; type: cell-based, human; conditions: 24 h treatment, versus relative control cells

| Molecule | protein levels of proteasome subunits (β5, α7) [1] | % β-galactosidase positive cells ([2]; 2 µg/ml) | levels of oxidized proteins (HFL-1 HDFs) | % β-galactosidase positive cells ([2]; 0,5 µg/ml) | % β-galactosidase positive cells ([2]; 5 µg/ml) |
| --- | --- | --- | --- | --- | --- |
| CC1(C)[C@@H](O)CC[C@]2(C)[C@H]3C(=O)C=C4[C@H]5C[C@@](C)(C(=O)O)CC[C@]5(C)CC[C@@]4(C)[C@]3(C)CC[C@@H]12 [18α-glycyrrhetinic acid] | similar | 37.7% | slightly lower levels of oxidized carbonylated proteins; also recorded: lower amounts of oxidized proteins | – | – |
| CC1(C)CC[C@]2(C(=O)O)CC[C@]3(C)C(=CC[C@@H]4[C@@]5(C)CC[C@H](O)[C@@](C)(CO)[C@@H]5CC[C@]43C)[C@@H]2C1 [Hederagenin] | did not detect any up-regulation | 31.8% | – | – | – |
| O=c1c(O)c(-c2ccc(O)c(O)c2)oc2cc(O)cc(O)c12 [Quercetin] | elevated protein levels | 13.5% | – | – | – |
| quercetin caprylate | elevated protein levels | 32.3% | less oxidized proteins; also recorded: lower amounts of oxidized proteins | 36.6% | 47% |
